Earlier results as cited in US20160067227A1, “PHARMACEUTICAL COMBINATIONS FOR THE TREATMENT OF METABOLIC DISORDERS” (Boehringer Ingelheim International GmbH, priority 2012, published 2016).

Settings: metformin on its own, in the diabetic

In the case of `CN(C)C(=N)N=C(N)N` [metformin], the “average improvement in the HbA1c value” is given as 1.0-1.5%.
